Results reported in PubChem BioAssay (NCI).
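Where inhibition never reached the appropriate level, the endpoint shown equals the highest concentration tested. Otherwise, values were interpolated linearly from a five-concentration, 48-hour dose response in 96-well plates. GI50 = concentration required for 50% inhibition of growth. Definition used: TGI = concentration required for complete inhibition of growth.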 Where a SMILES comes first, the peptide text is derived from it. Bridges are numbered along the chain shown (N, C = ends). [ ]: non-standard residue; d: D form. The star is where a group is joined. PhAc = O=C(Cc1ccccc1)*

Key:
Test in all cases: NCI tumour cell line growth inhibition, 48 h
[1] = system: A498 renal
[2] = system: ACHN renal
[3] = system: COLO 205 colon
[4] = system: HCT-15 colon
[5] = system: HL-60(TB) leukemia
[6] = system: HOP-92 NSCLC
[7] = system: HT29 colon
[8] = system: IGROV1 ovarian
[9] = system: MDA-MB-231 breast
[10] = system: MOLT-4 leukemia
[11] = system: NCI-H23 lung
[12] = system: RPMI-8226 leukemia
[13] = system: SK-MEL-5 melanoma
[14] = system: SK-OV-3 ovarian
[15] = system: SNB-75 CNS
[16] = system: SR leukemia
[17] = system: T-47D breast
[18] = system: U251 CNS
[19] = system: UO-31 renal

| SMILES | TGI [1] [µM] | TGI [2] [µM] | TGI [3] [µM] | TGI [4] [µM] | TGI [5] [µM] | TGI [6] [µM] | TGI [7] [µM] | TGI [8] [µM] | TGI [9] [µM] | TGI [10] [µM] | TGI [11] [µM] | TGI [12] [µM] | TGI [13] [µM] | TGI [14] [µM] | TGI [15] [µM] | TGI [16] [µM] | TGI [17] [µM] | TGI [18] [µM] | TGI [19] [µM] | GI50 [19] [µM] |
| --- | --- | --- | --- | --- | --- | --- | --- | --- | --- | --- | --- | --- | --- | --- | --- | --- | --- | --- | --- | --- |
| N=c1oc2c(Br)cc(Br)cc2cc1C(=O)Nc1ccccn1 | > 100 | > 100 | > 100 | > 100 | > 100 | > 100 | > 100 | > 100 | > 100 | > 100 | > 100 | > 100 | > 100 | > 100 | > 100 | > 100 | > 100 | > 100 | – | – |
| Cc1ccc2c3c(cnc2n1)C(=O)OCCN3C | > 100 | > 100 | > 100 | > 100 | > 100 | > 100 | > 100 | > 100 | > 100 | > 100 | > 100 | – | > 100 | – | – | > 100 | > 100 | > 100 | > 100 | – |
| Cc1[nH]n(C2=NCCN2)c(=O)c1C | > 100 | > 100 | > 100 | > 100 | > 100 | > 100 | > 100 | > 100 | > 100 | > 100 | > 100 | > 100 | > 100 | > 100 | > 100 | > 100 | > 100 | > 100 | > 100 | – |
| CC1=C(C)CC(C#N)(C#N)C(C#N)(C#N)C1 | > 10 | > 10 | > 6.8 | > 10 | > 5 | > 6.48 | > 10 | > 5.87 | > 10 | > 6.09 | > 6.63 | > 6.71 | > 10 | > 10 | > 10 | > 5.17 | 9.9 | > 10 | > 10 | – |
| C=C1[C@H](OC(=O)C(C)C)[C@@H](OC(C)=O)[C@@H](OC(C)=O)C(C)(C)[C@@H]2O[C@H]2[C@@H](C)C(=O)[C@@]2(OC(C)=O)C[C@@](C)(OC(C)=O)[C@H](OC(C)=O)[C@@H]2[C@H]1OC(C)=O | > 100 | > 100 | > 100 | > 100 | > 100 | > 100 | > 100 | > 100 | > 100 | > 100 | > 100 | > 100 | > 100 | > 100 | – | > 100 | > 100 | > 100 | > 100 | – |
| O=C1OC2C(O)COC2(O)C1(O)C(C[N+](=O)[O-])c1ccc(Cl)cc1 (centres undefined) | 12.3 | 26.7 | 12.8 | 16.7 | 10.5 | 54.2 | 6.11 | 21.9 | 48.7 | 10.9 | 18.6 | 4.67 | 21.6 | 31 | 20.1 | 19.6 | 43.2 | 25.5 | 22.7 | – |
| O=C1C=CC(=O)c2c1cc([N+](=O)[O-])c1ccoc21 | 30 | 3.4 | 8.63 | 58.5 | 8.72 | 5 | 76.7 | 51.9 | 52.7 | – | 46.2 | > 100 | 31.3 | 43.6 | > 59.5 | > 100 | > 100 | 37.2 | 8.09 | – |
| C/C(=C/c1ccccc1)CN(C(=O)/C=C\Sc1ccccc1)C(C)(C)C | > 100 | > 100 | > 100 | > 100 | > 100 | > 71.6 | > 100 | > 100 | > 100 | > 100 | > 100 | > 100 | > 100 | > 100 | > 100 | > 100 | > 100 | > 100 | > 100 | – |
| CC(C)(C)N1C(=O)c2ccccc2C1(O)C(F)(F)F (centres undefined) | > 100 | > 100 | > 100 | > 100 | > 100 | > 100 | > 100 | > 100 | > 100 | – | > 100 | > 100 | > 100 | > 100 | > 100 | > 100 | > 100 | > 100 | > 100 | – |
| C=CCOc1ccc(/C(N=Nc2ccc(C)cc2)=N/NC(=O)c2ccccc2)cc1OC | 72 | > 100 | 66.1 | > 100 | 29 | 41.8 | > 100 | 62.1 | > 100 | > 100 | 69.1 | – | 31.9 | – | 65.6 | 25 | 45.3 | > 100 | 73.4 | – |
| O=C(Cc1ccccc1)N[C@@H]1COC(=O)[C@@H]2CCCN2C(=O)[C@@H]2CCCN2C1=O (PhAc-[dS]-Pro-Pro; ester 1-C) | > 100 | > 100 | > 100 | > 100 | > 100 | > 100 | > 100 | > 100 | > 100 | > 100 | > 100 | – | > 100 | > 100 | – | > 100 | > 100 | – | – | – |
| COc1ccc(/C=N/n2c(=O)[nH]c3ccccc3c2=O)cc1 | > 100 | > 100 | > 100 | > 100 | – | > 100 | > 100 | > 100 | > 100 | > 100 | > 100 | > 100 | > 100 | > 100 | > 100 | > 100 | > 100 | > 100 | > 100 | – |
| CCOC(=O)N1CC2(C)C=CC1C(C(=O)OC)C2 (centres undefined) | > 100 | > 100 | > 100 | > 100 | > 100 | – | > 100 | > 100 | > 100 | > 100 | > 100 | > 100 | > 100 | > 100 | > 100 | > 100 | > 100 | > 100 | > 100 | – |
| Cn1c2c(c3ccccc31)CCN1OCC=C[C@@H](C(=O)O)[C@@H]21 | > 100 | > 100 | > 100 | > 100 | > 100 | > 100 | > 100 | > 100 | > 100 | – | – | – | > 100 | > 100 | > 100 | > 100 | > 100 | > 100 | > 100 | – |
| C1=Nc2ccc(cc2)N=Cc2ccccc2OCc2cccc(n2)COc2ccccc21 | > 100 | > 100 | > 100 | > 100 | > 100 | > 100 | > 100 | > 100 | > 100 | > 100 | > 100 | – | > 100 | > 100 | – | > 100 | > 100 | > 100 | > 100 | – |
| C=C[C@]1(O)CCC[C@]2(C)C(=O)CCC12C (some centres undefined) | > 100 | > 100 | > 100 | > 100 | > 100 | > 100 | > 100 | > 100 | > 100 | > 100 | > 100 | > 100 | > 100 | > 100 | – | > 100 | > 100 | > 100 | > 100 | – |
| CC1(C)C=Cc2c(cc3oc4ccc5c(c4c(=O)c3c2O)C=CC(C)(C)O5)O1 | > 100 | > 100 | > 100 | > 100 | – | > 100 | > 100 | > 100 | > 100 | > 100 | > 100 | > 100 | > 100 | > 100 | – | > 100 | > 100 | > 100 | > 100 | – |
| CCOC(=O)/C(C=Nc1c(C)n(C)n(-c2ccccc2)c1=O)=C(/O)c1ccccc1 | > 100 | > 100 | > 100 | > 100 | > 100 | > 100 | > 100 | > 100 | > 100 | > 100 | > 100 | > 100 | > 100 | > 100 | – | > 100 | > 100 | > 100 | > 100 | – |
| O=C1Oc2ccccc2C(=O)/C1=C/N1C(=O)/C(=C/c2ccc3c(c2)OCO3)SC1=S | 13.2 | 28.1 | 36.6 | 33.2 | > 64.4 | – | 35.9 | 37.2 | 44 | 35.9 | 30.5 | 38.3 | 29.8 | 38.5 | 19.2 | 31.4 | 31 | 15 | 22.9 | 7.14 |
| O=c1c(-c2c(-c3ccccc3)oc3ccc(Cl)cc3c2=O)c(-c2ccccc2)oc2ccc(Cl)cc12 | > 100 | > 100 | > 100 | > 100 | 0.606 | > 95 | > 100 | > 100 | > 83.7 | > 100 | > 100 | > 100 | > 100 | > 89.4 | > 62.2 | > 100 | > 100 | > 100 | – | – |
| Cc1c(C#N)c(N)[nH]c(=S)c1C#N | > 100 | > 100 | – | > 100 | > 100 | – | > 100 | > 100 | > 100 | > 100 | > 100 | > 100 | > 100 | – | > 100 | > 100 | > 100 | > 100 | > 100 | – |
| CCCCCN1CCN(c2ncccn2)CC1 | > 100 | > 100 | > 100 | > 100 | > 100 | > 100 | > 100 | > 100 | > 100 | – | > 100 | > 100 | > 100 | – | > 100 | > 100 | > 100 | > 100 | > 100 | – |
| NC(=O)NC(=O)CCC(NS(=O)(=O)c1ccccc1)C(=O)NC(N)=O (centres undefined) | > 100 | > 100 | > 100 | > 100 | > 100 | > 100 | > 100 | > 100 | > 100 | > 100 | > 100 | – | > 100 | > 100 | > 100 | > 100 | > 100 | > 100 | > 100 | – |
| O=C(Nc1ccc(Cl)cc1)NS(=O)(=O)c1coc2ccccc2c1=O | > 10 | > 10 | > 10 | > 10 | > 10 | > 10 | > 10 | > 10 | > 10 | > 10 | > 10 | > 10 | > 10 | > 10 | > 10 | > 10 | > 10 | > 10 | – | – |
| CCN1C(=S)n2cccc2C1CC(=O)c1ccc(Cl)cc1 (centres undefined) | > 100 | > 100 | – | > 100 | > 100 | > 100 | > 100 | > 100 | > 100 | 90.1 | > 100 | > 100 | – | > 100 | > 100 | > 100 | > 100 | > 100 | > 100 | – |
| CC(=O)OCC1OC(n2c(C#N)cc(=O)[nH]c2=O)CC1OC(C)=O (centres undefined) | > 100 | > 100 | > 100 | > 100 | > 100 | > 100 | > 100 | > 100 | > 100 | > 100 | > 100 | – | > 100 | > 100 | > 100 | > 100 | > 100 | > 100 | > 100 | – |
